In publication PMC4506568, “Targeting a Dynamic Protein–Protein Interaction: Fragment Screening against the Malaria Myosin A Motor Complex” (Chemmedchem, 2014):

Molecular target: T1, PfMTIPΔ60 (Plasmodium falciparum myosin A tail domain interacting protein, residues 61-204) (Plasmodium falciparum, UniProt Q8I4W8)
T1 construct: gene MTIP; residues 61-204 (N- and C-terminal domains, disordered N-terminal extension removed), N-terminal His tag kept, recombinant as previously described; 15N-labelled for NMR; free of myoA tail
Assay: 1H, […]-HSQC NMR titration
Assay type: binding

T1 sequence (Q8I4W8 entry or part of it, stated change not applied): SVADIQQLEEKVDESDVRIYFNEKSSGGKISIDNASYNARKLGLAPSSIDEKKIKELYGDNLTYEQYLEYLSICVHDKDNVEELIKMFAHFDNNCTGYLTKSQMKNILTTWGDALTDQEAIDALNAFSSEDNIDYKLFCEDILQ

## CN(C)Cc1ccc(CSCCN)o1 [compound 8, fragment 8]
  Kd: 22.5 ± 2.7 mM
